Test results taken from ChEMBL document CHEMBL1221208, “ATP-competitive inhibitors of the mitotic kinesin KSP that function via an allosteric mechanism” (Nat Chem Biol, 2007).
Active and inactive are the calls of the source. The calls are words filed in the database; no cut-off is given here.

Tests used:
[1] = molecular target: T1, Kinesin-like protein KIF11 (Homo sapiens) (UniProt P52732); assay: Binding affinity to human KSP assessed as photoaffinity labeling at Leu295 residue at 240 uM by photo affinity labeling study
T1 sequence (whole entry): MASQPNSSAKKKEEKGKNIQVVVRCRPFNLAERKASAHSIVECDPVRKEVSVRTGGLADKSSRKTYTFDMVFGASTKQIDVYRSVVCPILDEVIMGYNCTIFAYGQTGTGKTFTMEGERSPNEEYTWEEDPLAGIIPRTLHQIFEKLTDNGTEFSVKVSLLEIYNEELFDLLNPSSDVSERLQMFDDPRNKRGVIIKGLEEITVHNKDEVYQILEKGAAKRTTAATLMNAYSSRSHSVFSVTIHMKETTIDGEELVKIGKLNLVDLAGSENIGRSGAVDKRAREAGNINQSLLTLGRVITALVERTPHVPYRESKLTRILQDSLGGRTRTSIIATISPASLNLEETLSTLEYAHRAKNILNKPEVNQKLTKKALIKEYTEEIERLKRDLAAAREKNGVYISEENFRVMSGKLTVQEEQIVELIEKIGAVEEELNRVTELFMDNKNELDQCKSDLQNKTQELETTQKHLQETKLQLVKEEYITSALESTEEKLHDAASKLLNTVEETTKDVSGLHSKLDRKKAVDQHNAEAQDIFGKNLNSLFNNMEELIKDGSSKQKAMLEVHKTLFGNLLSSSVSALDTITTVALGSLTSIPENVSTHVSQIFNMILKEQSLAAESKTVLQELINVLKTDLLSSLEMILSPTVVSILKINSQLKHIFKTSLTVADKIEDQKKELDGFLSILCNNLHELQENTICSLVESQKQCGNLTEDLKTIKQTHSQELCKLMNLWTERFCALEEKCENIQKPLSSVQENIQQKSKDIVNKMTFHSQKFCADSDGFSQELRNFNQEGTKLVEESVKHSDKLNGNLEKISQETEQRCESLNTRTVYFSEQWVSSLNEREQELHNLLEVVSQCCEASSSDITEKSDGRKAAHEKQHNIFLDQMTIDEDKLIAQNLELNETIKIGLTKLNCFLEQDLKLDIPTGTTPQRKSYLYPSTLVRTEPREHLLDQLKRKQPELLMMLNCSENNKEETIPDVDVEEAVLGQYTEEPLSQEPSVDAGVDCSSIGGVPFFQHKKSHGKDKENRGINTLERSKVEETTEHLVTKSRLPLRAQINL

[2] = molecular target: T2, Kinesin-like protein KIF11 (Homo sapiens, UniProt P52732); assay: Inhibition of human wild type Eg5 using varying ATP levels in presence of saturating levels of microtubule by Lineweaver-Burke plot
T2 sequence (P52732 whole entry): T1 sequence (whole entry)

HCT-116 [3] = assay: Antiproliferative activity against IC95 biaryl selected drug-resistant against human HCT116 cells after 72 hrs by Cell titer Glo assay; format: functional, cell-based; settings: HCT-116, 72 h
HCT-116 [4] = assay: Antiproliferative activity against IC95 biaryl selected human HCT116 cells expressing Kinesin-like protein KIF11 D130V mutant after 72 hrs by Cell titer Glo assay; format: functional, cell-based; settings: HCT-116, 72 h
HCT-116 [5] = assay: Antiproliferative activity against 3x IC95 biaryl selected human HCT116 cells expressing Kinesin-like protein KIF11 D130V mutant after 72 hrs by Cell titer Glo assay; format: functional, cell-based; settings: HCT-116, 72 h
HCT-116 [6] = assay: Antiproliferative activity against IC50 biaryl selected human HCT116 cells expressing Kinesin-like protein KIF11 D130V mutant after 72 hrs by Cell titer Glo assay; format: functional, cell-based; settings: HCT-116, 72 h
HCT-116 [7] = assay: Antiproliferative activity against 3x IC95 biaryl selected drug-resistant against human HCT116 cells after 72 hrs by Cell titer Glo assay; format: functional, cell-based; settings: HCT-116, 72 h
HCT-116 [8] = assay: Antiproliferative activity against IC50 biaryl selected drug-resistant against human HCT116 cells after 72 hrs by Cell titer Glo assay; format: functional, cell-based; settings: HCT-116, 72 h
HCT-116 [9] = assay: Antiproliferative activity against human HCT116 cells after 72 hrs by Cell titer Glo assay; format: functional, cell-based; settings: HCT-116, 72 h
HCT-116 [10] = assay: Antiproliferative activity against human HCT116 cells expressing Kinesin-like protein KIF11 D130V mutant after 72 hrs by Cell titer Glo assay; format: functional, cell-based; settings: HCT-116, 72 h

Compound: NC(=O)Nc1ccc(-c2ccc(C3(C(F)(F)F)N=N3)cc2)cc1
- Activity [1]: Active
- Ki [2]: 330 nM

Compound: CC(=O)O[C@@]12CO[C@@H]1C[C@H](O)[C@@]1(C)C(=O)[C@H](O)C3=C(C)[C@@H](OC(=O)[C@H](O)[C@@H](NC(=O)OC(C)(C)C)c4ccccc4)C[C@@](O)([C@@H](OC(=O)c4ccccc4)[C@H]21)C3(C)C [DOCETAXEL]
- IC50 (HCT-116 [3]): 0.18 nM
- IC50 (HCT-116 [4]): 0.59 nM
- IC50 (HCT-116 [5]): 0.35 nM
- IC50 (HCT-116 [6]): 0.2 nM
- IC50 (HCT-116 [7]): 8.7 nM
- IC50 (HCT-116 [8]): 0.31 nM
- IC50 (HCT-116 [9]): 0.3 nM
- IC50 (HCT-116 [10]): 0.23 nM

Compound: Cc1ccc(C(=O)N(CCCN)[C@@H](c2nc3cc(Cl)ccc3c(=O)n2Cc2ccccc2)C(C)C)cc1F
- IC50 (HCT-116 [3]): 1 nM
- IC50 (HCT-116 [4]): 675 nM
- IC50 (HCT-116 [5]): 87.3 nM
- IC50 (HCT-116 [6]): 1190 nM
- IC50 (HCT-116 [7]): 22 nM
- IC50 (HCT-116 [8]): 0.72 nM
- IC50 (HCT-116 [9]): 0.46 nM
- IC50 (HCT-116 [10]): 903 nM
